Reference: patent publication US12161616B2, “Combination therapy comprising an omega-3 fatty acid, a folate species and a vitamin B12 species” (Oxford University Innovation Limited, priority 2014, dated 2024)

Tested on: brain atrophy rate in patients with a diagnosis of MCI
Assay: VITACOG trial: whole brain atrophy per year from MRI scans (SIENA)
Type: in vivo, human
Settings: for BAR (brain atrophy rate): entire study group
Experimental: This study was conducted as a part of the VITACOG trial, ‘Homocysteine and B vitamins in cognitive impairment’, and was carried out according to the principles of the Declaration of Helsinki and received approval of the Oxfordshire NHS research ethics committee A (COREC 04/Q1604/100). All participants gave their written informed consent. The study protocol and participants, along with inclusion and exclusion criteria, have been described in detail elsewhere (Smith et al, PLOS One 2010; 5 (9); e12244.doi10.1371/journal.pone. 0012244). In short, 646 patients above 70 years of age with a diagnosis of MCI were assessed for eligibility. After randomization of eligible subjects, and some withdrawals, 133 started treatment with TrioBe Plus® (0.8 mg folic acid, 0.5 mg vitamin B12, and 20 mg vitamin B6, specifically 0.8 mg folic acid, 0.5 mg cyanocobalamin and 20 mg pyridoxine HCl) while 133 received placebo for a duration of 24 months. Participants were only included in this study if brain atrophy data was available.
The MRI protocol used in the VITACOG study has been described in detail elsewhere (Smith et al referenced above). In short, baseline and follow-up volumetric cranial MRI scans were carried out at the Oxford Centre for Clinical Magnetic Resonance Research using a 1.5 T MRI system (Sonata; Siemens Medical Solutions, Erlangen, Germany). Whole brain atrophy per year was estimated from MR images taken at baseline and follow-up, using the fully automated SIENA protocol which provides accuracy and robustness. Normalized brain volume at baseline was estimated from a single image using a cross-sectional method (SIENAX), and used as a covariate in the statistical analyses.
IBM SPSS for Windows, version 20, was used for all statistical analyses (IBM Corp., Armonk, NY, USA). Skewed fatty acids were normalized using their natural logarithms. Unless otherwise stated, fatty acid concentrations at baseline were used for statistical analyses. The main outcome in this study was to investigate the effect of B vitamin treatment on brain atrophy rates, based on baseline omega-3 fatty acid status. Analyses of variance, were used to further examine associations between the fatty acid variables and tHcy and brain atrophy. Two correction models were used. Model A was adjusted for age, sex, and initial brain volume, while model B also adjusted for plasma tHcy, ApoE status, education level, and baseline levels of diastolic blood pressure, triglyceride concentration, and creatinine concentration. When the entire study population was included in the analysis, tHcy measured at follow-up was used as covariate since this measure most likely represents the average tHcy during the trial. When the analysis was confined to the placebo group, tHcy at baseline was used.
Differences between atrophy rate in the placebo and B vitamin groups were assessed using Student's t test, while brain atrophy rates according to different levels of fatty acids (tertiles), were analyzed using ANCOVA. Where an ANCOVA indicated significant differences between tertiles, Bonferroni corrected post hoc comparisons were made between the lowest and the two higher tertiles. […] P<0.05 was considered statistically significant in all analyses.

[1] = HIGH tHcy at follow-up, middle baseline tertile, Model A
[2] = HIGH tHcy at follow-up, middle baseline tertile, Model B
[3] = HIGH tHcy at follow-up, top baseline tertile, Model A
[4] = HIGH tHcy at follow-up, top baseline tertile, Model B
[5] = LOW tHcy at follow-up, middle baseline tertile, Model A
[6] = LOW tHcy at follow-up, middle baseline tertile, Model B
[7] = LOW tHcy at follow-up, top baseline tertile, Model A
[8] = LOW tHcy at follow-up, top baseline tertile, Model B
[9] = HIGH tHcy at follow-up, lowest baseline tertile (DHA <245 μM, EPA <136 μM), Model A
[10] = HIGH tHcy at follow-up, lowest baseline tertile (DHA <245 μM, EPA <136 μM), Model B
[11] = HIGH tHcy at follow-up, middle baseline tertile (DHA 245-345 μM, EPA 136-222 μM), Model A
[12] = HIGH tHcy at follow-up, middle baseline tertile (DHA 245-345 μM, EPA 136-222 μM), Model B
[13] = HIGH tHcy at follow-up, top baseline tertile (DHA >345 μM, EPA >222 μM), Model A
[14] = HIGH tHcy at follow-up, top baseline tertile (DHA >345 μM, EPA >222 μM), Model B
[15] = LOW tHcy at follow-up, lowest baseline tertile (DHA <245 μM, EPA <136 μM), Model A
[16] = LOW tHcy at follow-up, lowest baseline tertile (DHA <245 μM, EPA <136 μM), Model B
[17] = LOW tHcy at follow-up, middle baseline tertile (DHA 245-345 μM, EPA 136-222 μM), Model A
[18] = LOW tHcy at follow-up, middle baseline tertile (DHA 245-345 μM, EPA 136-222 μM), Model B
[19] = LOW tHcy at follow-up, top baseline tertile (DHA >345 μM, EPA >222 μM), Model A
[20] = LOW tHcy at follow-up, top baseline tertile (DHA >345 μM, EPA >222 μM), Model B

Row | SMILES | Percent change of BAR compared to the lowest fatty acid tertile [1] [%] | Percent change of BAR compared to the lowest fatty acid tertile [2] [%] | Percent change of BAR compared to the lowest fatty acid tertile [3] [%] | Percent change of BAR compared to the lowest fatty acid tertile [4] [%] | Percent change of BAR compared to the lowest fatty acid tertile [5] [%] | Percent change of BAR compared to the lowest fatty acid tertile [6] [%] | Percent change of BAR compared to the lowest fatty acid tertile [7] [%] | Percent change of BAR compared to the lowest fatty acid tertile [8] [%] | BAR (brain atrophy rate) [9] | BAR (brain atrophy rate) [10] | BAR (brain atrophy rate) [11] | BAR (brain atrophy rate) [12] | BAR (brain atrophy rate) [13] | BAR (brain atrophy rate) [14] | BAR (brain atrophy rate) [15] | BAR (brain atrophy rate) [16] | BAR (brain atrophy rate) [17] | BAR (brain atrophy rate) [18] | BAR (brain atrophy rate) [19] | BAR (brain atrophy rate) [20]
1 | CC/C=C\C/C=C\C/C=C\C/C=C\C/C=C\CCCC(=O)O [20:5n-3 (EPA), Eicosapentaenoic acid] | 18 | 11 | 9.5 | 4.3 | −30 | −27 | −33 | −40 | 1.02 percent brain whole brain reduction per year | 0.98 percent brain whole brain reduction per year | 1.19 percent brain whole brain reduction per year | 1.20 percent brain whole brain reduction per year | 1.11 percent brain whole brain reduction per year | 1.13 percent brain whole brain reduction per year | 1.07 percent brain whole brain reduction per year | 1.14 percent brain whole brain reduction per year | 0.73 percent brain whole brain reduction per year | 0.76 percent brain whole brain reduction per year | 0.69 percent brain whole brain reduction per year | 0.63 percent brain whole brain reduction per year
2 | CC/C=C\C/C=C\C/C=C\C/C=C\C/C=C\C/C=C\CCC(=O)O [22:6n-3 (DHA), Docosahexaenoic acid] | 7.7 | 5.7 | 8.6 | 0.4 | −34 | −36 | −37 | −43 | 1.08 percent brain whole brain reduction per year | 1.06 percent brain whole brain reduction per year | 1.12 percent brain whole brain reduction per year | 1.14 percent brain whole brain reduction per year | 1.13 percent brain whole brain reduction per year | 1.08 percent brain whole brain reduction per year | 1.09 percent brain whole brain reduction per year | 1.20 percent brain whole brain reduction per year | 0.71 percent brain whole brain reduction per year | 0.70 percent brain whole brain reduction per year | 0.68 percent brain whole brain reduction per year | 0.62 percent brain whole brain reduction per year
